From paper PMC9599717, “The Multicellular Effects of VDAC1 N-Terminal-Derived Peptide” (Biomolecules, 2022)

Experiments:
[1] = tested on: U-87MG (human glioblastoma); assay: Cell death by PI staining and flow cytometry (FACS), U-87MG; format: cell-based; details: U-87MG cells
Protocol: (§1) MEC-1 cells were incubated in a serum-free medium with various concentrations of VDAC1-based peptides for 1.5 h at room temperature (RT), collected by centrifugation, washed with phosphate-buffered saline (PBS), and analyzed for cell death. Adherent cancer cells were seeded in culture plates and allowed to adhere overnight in a sterile cell culture incubation chamber maintained at 37 °C and 5% CO2. The next day, media was removed from the plates, and cells were treated with various concentrations of VDAC1-based peptides for the indicated time in serum-free Dulbecco’s Modified Eagle Medium (DMEM) with and without DMSO (final 0.15%) as a control for 6 h at 37 °C and 5% CO2. Cells were trypsinized, centrifuged (1500× g, 5 min), and washed with PBS.
(§2) Cell death was analyzed by the propidium iodide (PI) staining, followed by flow cytometry with the iCyt sy3200 Benchtop Cell Sorter/Analyzer and analysis with EC800 v 1.3.7 software (Sony Biotechnology Inc., San Jose, CA, USA). Apoptosis was analyzed by PI and annexin V-FITC staining, which was carried out according to the manufacturer’s instructions with minor modifications. U-87MG cells, untreated (control) or treated with various concentrations of VDAC1-based peptides, were harvested and washed once with binding buffer (10 mM HEPES/NaOH, pH 7.4, 140 mM NaCl, and 2.5 mM CaCl2). […] Next, cells were washed and PI (6.25 μg/mL), was added immediately before flow cytometry At least 10,000 events were collected, recorded on a dot plot, and analyzed by flow cytometry.
Figure 1 VDAC1-based peptides induced cell death in various cancer cell lines. […] (E) Human cervix adenocarcinoma (HeLa) (▲) and human glioblastoma (U-87MG) (●, ○) cell lines were incubated 6 h with the indicated concentrations of D-Δ(1-18)N-Ter-Antp peptide and analyzed for cell death PI staining and flow cytometry (o,▲) or FITC–annexin V/PI staining and flow cytometry analysis (●). (F) U-87MG cells were treated with 10 µM (○), 20 µM (●) or without (Δ) of D-Δ(1-18)N-Ter-Antp peptide for the indicated times, and cell death was analyzed by PI staining and flow cytometry. […]

[2] = tested on: HeLa (human cervix adenocarcinoma); assay: Cell death by PI staining and flow cytometry (FACS), HeLa; format: cell-based; details: HeLa cells
Protocol: as §1
as §2, with “modifications.” for “modifications. U-87MG cells, untreated (control) or treated with various concentrations of VDAC1-based peptides, were harvested and washed once with binding buffer (10 mM HEPES/NaOH, pH 7.4, 140 mM NaCl, and 2.5 mM CaCl2).”, “cytometry. […]” for “cytometry.”

[3] = 6 h incubation, serum-free medium, PI staining and FACS, read-out: IC50, peptide concentration required for half-maximal cell death activity

19-FTKGYGFGL-26- RQIKIWFQNRRMKWKK [D-Δ(1-18)N-Ter-Antp]
Cell death in time course ([1]; 3-h incubation, 10 or 20 µM tested (Figure 1F), PI staining): about 70% | Maximal cell death (at the concentration for maximal cell death) ([1]; 6 h): 70% | IC50 [1, 3]: 6 µM | Maximal cell death (at the concentration for maximal cell death) ([2]; 6 h): 100% | IC50 [2, 3]: 2 µM
